Columns and labels:
Assay type in all cases: cell-based, human
[1] = tested on: adherent PBMNC; experiment: DC morphology (Wright-Geimsa) of plastic adherent cells cultured with non-cytokine additives
[2] = tested on: adherent PBMNC; experiment: S100 immunohistochemistry of plastic adherent cells cultured with non-cytokine additives; settings: for percentage of S100+ cells: without GM-CSF added to additives
[3] = tested on: Bulk PBMNC; experiment: Morphologically identified dendritic cells in bulk PBMNC cultures with non-cytokine additives
Protocol: Cytofunnels were attached to microscope slides. 50,000 to 100,000 cells were removed from each culture and resuspended in approximately 100 to 200 ul of PBS-CMF. Slides were placed in the Cytospin® centrifuge and spun at 100 rpm for 4 min. Cytofunnels were removed from the slides and the slides were air dried for 1 minute. Ten drops of Wright-Geimsa stain were placed onto each slide and allowed to fix for 1 to 2 minutes. Ten drops of water were added to each slide and allowed to sit for 2 to 4 minutes. The slides were rinsed and air dried.
Reading of Cytospin Slides: Slides were read under phase contrast microscopy, 40× and 60× oil magnification. One hundred cells were identified and characterized morphologically as either dendritic cells or non-dendritic cells (lymphocytes and monocyte, or CD34+-derived cells in those cases). Digital images were taken using a color monitor and color video printer.
Culture of Bulk PBMNC: PBMNC cells were cultured in X-VIVO 15™ supplemented with 2 mM L- glutamine. Cultures were initiated at 5×^05 cells/ml in PL2417 gas-permeable containers (20 ml). GM-CSF and IL-4 were added to the cultures at final concentrations of 50 ng/ml and 1000 U/ml or non-cytokine additives such as Vitamin D3 at 2.5 uM, Vitamin E at 0.1%, Linoleic Acid at 5 ug/ml, or Ca++ Ionophore at 10 mM. Addition and subtraction of cells, media, and growth factors to and from PL2417 gas-permeable containers was accomplished by spiking a Sampling Site Coupler into the sample port of the container followed by use of syringes and needles. Cells were cultured in a 5% CO2, ambient O2, 37° C. humidified incubator for 7 days.
(§1) Cytospin slide preparation, Wright-Geimsa and immunohistochemical staining of the cultured cells were conducted as described in Example 1 and 2 above. Mixed lymphocyte reactions (MLR's) were setup using T cells (responders) and dendritic cell enriched cultures (stimulators) from bulk PBMNC cultures, as described above in Example 1.

[4] = tested on: T cells; experiment: Allogeneic MLR with bulk PBMNC cultures grown with non-cytokine additives
Protocol: MLR's were setup using T cells as responders and dendritic cell enriched cultures as antigen presenters. Sheep red blood cells were prepared and used to erythrocyte rosette T cells from a MNC preparation as described in “Current Protocols in Immunology”, John Wiley & Sons Inc, 1995. Vol. 2, 7.2.1-7.2.4. Erythrocyte+(E+ ) T cells were resuspended to 1×10^6 cells/ml in RPMI 1640/10% FCS. Dendritic cells were resuspended to 1×10^6 cells/ml in RPMI 1640/10% FCS and mitomycin C was added at 25 ug/ml to inhibit proliferation. The tubes were incubated at 37° C. for 30 min. then washed 3 times with PBS-CMF/1% HA. […] […] The appropriate control wells were also prepared. Plates were incubated for 4 or 5 days at 37° C.
Each well was pulsed with 1 uCi of ^3H-thymidine in RPMI 1640/10% FCS. Plates were incubated overnight at 37° C.
Plates were harvested onto glass fiber filter strips using a cell harvester. Discs were placed into scintillation vials containing scintillation cocktail and samples were counted using a beta radiation counter.
as §1
The functional capacity of cultured cells to induce T cell proliferation was measured in an allogeneic MLR. […] At the greatest ratio of 1:100, the differences in capacity to induce T cell proliferation is marginal between the GM-CSF/IL-4 cultured cells and the non-cytofine additive cultured cells.

## CCCCC/C=C\C/C=C\CCCCCCCC(=O)O [Linoleic Acid]
[1]; Day 4, with GM-CSF present
  % DC: 8.00%
[1]; Day 4, without GM-CSF
  % DC: 3.00%
[1]; Day 7, with GM-CSF present
  % DC: 9.00%
[1]; Day 7, without GM-CSF
  % DC: 6.00%
[1]; day 7, without GM-CSF added to additives
  morphologically identified DC: next highest percentages
[2]; Day 4, with GM-CSF present
  % S100+: 12.00%
[2]; Day 4, without GM-CSF
  % S100+: 20.00%
[2]; Day 7, with GM-CSF present
  % S100+: 26.00%
[2]; Day 7, without GM-CSF
  % S100+: 25.00%
[2]; day 4
  percentage of S100+ cells: 20%
[2]; day 7
  percentage of S100+ cells: next highest percentages
[3]; Day 7
  % DC: 5.00%
[3]; Day 7, projected in culture
  TOTAL # OF DC: 4.63E+05
[3]; day 7
  fold fewer DC (average total number projected in culture) than GM-CSF/IL-4 cultures: approximately 4 fold
[4]; Day 7, Cell Culture:T cell Ratio 1:1
  Allogeneic MLR. Increase Over Background Proliferation: 6.1
[4]; Day 7, Cell Culture:T cell Ratio 1:10
  Allogeneic MLR. Increase Over Background Proliferation: 3.1
[4]; Day 7, Cell Culture:T cell Ratio 1:100
  Allogeneic MLR. Increase Over Background Proliferation: 1.1

Source: patent publication US6458585B1, “Cytokine-free culture of dendritic cells” (Nexell Therapeutics Inc., priority 1996, dated 2002)
